Measurements published in patent publication US20040006236A1, “Diaminopropionic acid derivatives” (priority 1999, published 2004).
Like-named read-outs stand apart in the source and are kept apart here.

Tests used:
[1] = target: T1, ICAM-1 binding to immobilized Mac-1 (Homo sapiens, UniProt P05107+P11215); assay: Mac-1/ICAM-1 screening assay (solid-phase ELISA); settings: read-out: Mac-1/ICAM-1 Protein-Protein Assay IC50
T1 construct: made in house; host or cells: transfected 293 cells (Mac-1)
Method in brief: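 Competitive solid-phase ELISA: membrane Mac-1 from transfected 293 cells coated at 3 μg/mL in 20 mM Hepes pH 7.2/0.14 M NaCl/1 mM MnCl2; compounds (0.12 nM-20 μM, 1:4 series) plus 5dICAM-Ig (40 μg/mL, added) 2 h at 37° C. Bound ICAM-Ig detected with HRP anti-human IgG Fc, TMB, A450; IC50 reported.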

[2] = test system: cell-surface Mac-1 adhesion to immobilized fibrinogen (HL-60 cells); assay: Mac-1/Fibrinogen cell-based screening assay; set-up: species or system human; settings: Homo sapiens, HL-60, HL-60 cells; read-out: Mac-1/Fgn Cell based Assay IC50
Method in brief: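 Wells coated with fibrinogen and blocked with PVP. Labeled HL-60 cells (2×10^6 cells/mL in RPMI/0.05% BSA/0.2 mM MnCl2) preincubated with DMSO-diluted compounds for 10 min at 37° C, then left to adhere 30 min at 37° C/5% CO2. Unbound cells washed off with TBS.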

[3] = test system: T lymphocyte proliferation (C57BI/6 spleen cells with irradiated BALB/c spleen cells); assay: Mixed lymphocyte reaction (MLR), one-way; format: cell-based, mice; settings: read-out: MLR IC50
Method in brief: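 Irradiated BALB/c spleen cells mixed with C57BI/6 spleen cells in RPMI1640/10% heat-inactivated FBS/2-mercaptoethanol, with serial antagonist dilutions; 3 days at 5% CO2. Tritiated thymidine (0.5 μCi/well) added on day 3; incorporation counted by liquid scintillation after a further 6 h.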

T1 sequence (P05107 23-769, other chains not shown): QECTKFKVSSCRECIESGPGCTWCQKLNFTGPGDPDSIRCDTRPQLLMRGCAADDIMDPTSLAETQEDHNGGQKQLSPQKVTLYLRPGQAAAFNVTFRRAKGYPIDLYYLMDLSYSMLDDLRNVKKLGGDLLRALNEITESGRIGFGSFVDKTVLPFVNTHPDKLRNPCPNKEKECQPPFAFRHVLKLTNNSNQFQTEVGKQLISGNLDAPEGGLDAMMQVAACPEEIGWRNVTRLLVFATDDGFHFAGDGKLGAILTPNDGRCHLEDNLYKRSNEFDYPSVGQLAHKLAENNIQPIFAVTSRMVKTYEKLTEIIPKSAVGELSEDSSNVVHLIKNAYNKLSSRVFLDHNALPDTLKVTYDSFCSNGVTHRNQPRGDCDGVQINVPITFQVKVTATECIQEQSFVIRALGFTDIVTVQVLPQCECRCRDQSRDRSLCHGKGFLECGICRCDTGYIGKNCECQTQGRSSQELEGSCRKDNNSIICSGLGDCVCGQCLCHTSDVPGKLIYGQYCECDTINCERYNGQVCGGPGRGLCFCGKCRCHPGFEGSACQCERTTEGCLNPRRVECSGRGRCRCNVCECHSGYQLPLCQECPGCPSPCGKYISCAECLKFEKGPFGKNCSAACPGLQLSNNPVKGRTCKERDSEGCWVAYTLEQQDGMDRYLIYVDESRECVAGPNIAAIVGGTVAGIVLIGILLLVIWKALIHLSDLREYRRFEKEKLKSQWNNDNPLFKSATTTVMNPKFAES

SMILES	IC50 [1] [nM]	IC50 [2] [nM]	IC50 ([3]; Mus musculus, T-lymphocyte) [nM]	IC50 [3] [nM]
O=C(NCc1cccc(O)c1)c1ccc(C(=O)N[C@@H](CNC(=O)C2CCCCC2)C(=O)O)c(Cl)c1 [Example 104]	25	82	775	–
CC1(C(=O)NC[C@H](NC(=O)c2ccc(C(=O)NCc3cccc(O)c3)cc2Cl)C(=O)O)CCCCC1 [Example 105]	22	151	280	–
O=C(CCN1CCCCC1)NC[C@H](NC(=O)c1ccc(C(=O)NCc2cccc(O)c2)cc1Cl)C(=O)O [Example 112]	18	161	375	–
O=C(/C=C/c1cccs1)NC[C@H](NC(=O)c1ccc(C(=O)NCc2cccc(O)c2)cc1Cl)C(=O)O [Example 116]	18	86	1300	–
CC(=O)Oc1ccccc1C(=O)NC[C@H](NC(=O)c1ccc(C(=O)NCc2cccc(O)c2)cc1Cl)C(=O)O [Example 117]	33	131	290	–
NS(=O)(=O)c1ccc(C(=O)NC[C@H](NC(=O)c2ccc(C(=O)NCc3cccc(O)c3)cc2Cl)C(=O)O)cc1 [Example 119]	26	468	420	–
O=C(NCc1cccc(O)c1)c1ccc(C(=O)N[C@@H](CNC(=O)c2ccccc2[N+](=O)[O-])C(=O)O)c(Cl)c1 [Example 140]	47	98	350	–
O=C(NCc1cccc(O)c1)c1ccc(C(=O)N[C@@H](CNC(=O)c2ccc([N+](=O)[O-])cc2)C(=O)O)c(Cl)c1 [Example 142]	13	275	500	–
O=C(NCc1cccc(O)c1)c1ccc(C(=O)N[C@@H](CNC(=O)c2cc(F)c(F)cc2F)C(=O)O)c(Cl)c1 [Example 145]	24	131	1450	–
O=C(NCc1cccc(O)c1)c1ccc(C(=O)N[C@@H](CNC(=O)c2ccco2)C(=O)O)c(Cl)c1 [Example 148]	18	76	335	–
O=C(NCc1cccc(O)c1)c1ccc(C(=O)N[C@@H](CNC(=O)c2ccc(Br)o2)C(=O)O)c(Cl)c1 [Example 150]	21	65	800	–
O=C(NCc1cccc(O)c1)c1ccc(C(=O)N[C@@H](CNC(=O)c2ccc[nH]2)C(=O)O)c(Cl)c1 [Example 151]	33	46	265	–
O=C(NCc1cccc(O)c1)c1ccc(C(=O)N[C@@H](CNC(=O)c2sccc2Br)C(=O)O)c(Cl)c1 [Example 154]	11	58	365	–
O=C(NCc1cccc(O)c1)c1ccc(C(=O)N[C@@H](CNC(=O)c2ccc(Br)s2)C(=O)O)c(Cl)c1 [Example 155]	13	51	750	–
O=C(NCc1cccc(O)c1)c1ccc(C(=O)N[C@@H](CNC(=O)c2sccc2Cl)C(=O)O)c(Cl)c1 [Example 156]	12	64	465	–
O=C(NCc1cccc(O)c1)c1ccc(C(=O)N[C@@H](CNC(=O)c2ccc(Cl)s2)C(=O)O)c(Cl)c1 [Example 157]	7.7	34	700	–
O=C(NCc1cccc(O)c1)c1ccc(C(=O)N[C@@H](CNC(=O)c2cc(Br)c(Br)s2)C(=O)O)c(Cl)c1 [Example 158]	20	70	7600	–

The next lines start with results.

IC50 [1] [nM]	IC50 [2] [nM]	SMILES	IC50 ([3]; Mus musculus, T-lymphocyte) [nM]	IC50 [3] [nM]
23	16	Nc1cccc(C(=O)NC[C@H](NC(=O)c2ccc(C(=O)NCc3cccc(O)c3)cc2Cl)C(=O)O)c1 [Example 118]	–	145
9	80	O=C(NCc1cccc(O)c1)c1ccc(C(=O)N[C@@H](CNC(=O)c2cccc(Br)c2)C(=O)O)c(Cl)c1 [Example 121]	530	–
6.9	20	O=C(NCc1cccc(O)c1)c1ccc(C(=O)N[C@@H](CNC(=O)c2cccc(Cl)c2)C(=O)O)c(Cl)c1 [Example 123]	300	–
11	27	N#Cc1cccc(C(=O)NC[C@H](NC(=O)c2ccc(C(=O)NCc3cccc(O)c3)cc2Cl)C(=O)O)c1 [Example 126]	400	–
23	71	CN(C)c1cccc(C(=O)NC[C@H](NC(=O)c2ccc(C(=O)NCc3cccc(O)c3)cc2Cl)C(=O)O)c1 [Example 127]	455	–
9.7	12	O=C(NCc1cccc(O)c1)c1ccc(C(=O)N[C@@H](CNC(=O)c2cccc(F)c2)C(=O)O)c(Cl)c1 [Example 131]	215	–
7	3.3	O=C(NCc1cccc(O)c1)c1ccc(C(=O)N[C@@H](CNC(=O)c2cccc(O)c2)C(=O)O)c(Cl)c1 [Example 132]	82	–
10	32	O=C(NCc1cccc(O)c1)c1ccc(C(=O)N[C@@H](CNC(=O)c2cccc(I)c2)C(=O)O)c(Cl)c1 [Example 133]	625	–
26	218	COc1ccccc1C(=O)NC[C@H](NC(=O)c1ccc(C(=O)NCc2cccc(O)c2)cc1Cl)C(=O)O [Example 134]	1550	–
16	121	COC(=O)c1cccc(C(=O)NC[C@H](NC(=O)c2ccc(C(=O)NCc3cccc(O)c3)cc2Cl)C(=O)O)c1 [Example 136]	490	–
22	84	Cc1ccccc1C(=O)NC[C@H](NC(=O)c1ccc(C(=O)NCc2cccc(O)c2)cc1Cl)C(=O)O [Example 137]	325	–
10	17	Cc1cccc(C(=O)NC[C@H](NC(=O)c2ccc(C(=O)NCc3cccc(O)c3)cc2Cl)C(=O)O)c1 [Example 138]	205	–
9.6	47	O=C(NCc1cccc(O)c1)c1ccc(C(=O)N[C@@H](CNC(=O)c2cccc([N+](=O)[O-])c2)C(=O)O)c(Cl)c1 [Example 141]	450	–
27	153	O=C(NCc1cccc(O)c1)c1ccc(C(=O)N[C@@H](CNC(=O)c2cccc(C(F)(F)F)c2)C(=O)O)c(Cl)c1 [Example 146]	490	–
13	36	Cc1ccsc1C(=O)NC[C@H](NC(=O)c1ccc(C(=O)NCc2cccc(O)c2)cc1Cl)C(=O)O [Example 159]	165	–
6.6	11	Cc1ccc(C(=O)NC[C@H](NC(=O)c2ccc(C(=O)NCc3cccc(O)c3)cc2Cl)C(=O)O)s1 [Example 160]	220	–
12	17	O=C(NCc1cccc(O)c1)c1ccc(C(=O)N[C@@H](CNC(=O)c2ccsc2)C(=O)O)c(Cl)c1 [Example 161]	94	–
